According to patent US20260262643A1, “HERBICIDAL BENZOXAZINES” (FMC CORPORATION, priority 2022, published 2026):

Experiments:
[1] = test system: rice; assay: Test B flooded paddy test; assay type: in vivo, Oryza sativa; conditions: 250 g ai/ha, Flood, 13 days, 0 to 100 scale (0 no effect, 100 complete control)
Procedure, shortened: (§1)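 Flooded to 3 cm at treatment time, 2-leaf plants got the test compound applied straight into the paddy water. They then stayed under constant flood in a greenhouse for 13 days. Ratings used a 0 to 100 visual scale.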

[2] = test system: sedge, umbrella; assay: Test B flooded paddy test; assay type: in vivo, Cyperus difformis; conditions: 250 g ai/ha, Flood, 13 days, 0 to 100 scale (0 no effect, 100 complete control)
Procedure, shortened: as §1

[3] = test system: barnyardgrass; assay: Test B flooded paddy test; assay type: in vivo, Echinochloa crus-galli; conditions: 250 g ai/ha, Flood, 13 days, 0 to 100 scale (0 no effect, 100 complete control)
Procedure, shortened: as §1

[4] = test system: barnyardgrass; assay: Test A preemergence; assay type: in vivo, Echinochloa crusgalli; conditions: 1000 g ai/ha, 0 to 100 scale (0 no effect, 100 complete control), 10 days
Procedure, shortened: (§2)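 Greenhouse pot test, 10 days. Compound (non-phytotoxic solvent, surfactant) sprayed on soil at seeding or on seedlings at one- to two-leaf stage. Visual injury rated 0–100 against untreated plants.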

[5] = test system: ryegrass, Italian; assay: Test A preemergence; assay type: in vivo, Lolium multiflorum; conditions: 1000 g ai/ha, 0 to 100 scale (0 no effect, 100 complete control), 10 days
Procedure, shortened: as §2

[6] = test system: ducksalad; assay: Test B flooded paddy test; assay type: in vivo, Heteranthera limosa; conditions: 250 g ai/ha, Flood, 13 days, 0 to 100 scale (0 no effect, 100 complete control)
Procedure, shortened: as §1

[7] = test system: kochia; assay: Test A preemergence; assay type: in vivo, Bassia scoparia; conditions: 1000 g ai/ha, 0 to 100 scale (0 no effect, 100 complete control), 10 days
Procedure, shortened: as §2

[8] = test system: Pigweed, Redroot; assay: Test A preemergence; assay type: in vivo, Amaranthus retroflexus; conditions: 1000 g ai/ha, 0 to 100 scale (0 no effect, 100 complete control), 10 days
Excerpt: (§3) Seeds of plant species selected from barnyardgrass (Echinochloa crusgalli), blackgrass (Alopecurus myosuroides), corn (Zea mays), foxtail, giant (giant foxtail, Setaria faberi), goosegrass (Eleusine indica), kochia (Bassia scoparia), oat, wild (wild oat, Avena fatua), pigweed, palmer (palmer amaranth, palmer pigweed, Amaranthus palmeri), Pigweed, Redroot (redroot pigweed, Amaranthus retroflexus), ragweed (common ragweed, Ambrosia artemisiifolia), ryegrass, Italian (italian ryegrass, Lolium multiflorum), soybean (Glycine max), and wheat (Triticum aestivum) were planted into a blend of loam soil and sand and treated preemergence with a directed soil spray using test chemicals formulated in a non-phytotoxic solvent mixture which included a surfactant. At the same time, plants selected from these crops and weed species and also galium (catchweed bedstraw, Galium aparine) and horseweed (Erigeron canadensis) were planted in pots containing the same blend of loam soil and sand and treated with postemergence applications of test chemicals formulated in the same manner. Plants ranged in height from 2 to 10 cm and were in the one- to two-leaf stage for the postemergence treatment. Treated plants and untreated controls were maintained in a greenhouse for 10 days, after which time all treated plants were compared to untreated controls and visually evaluated for injury. Plant response ratings, summarized in Table A, are based on a 0 to 100 scale where 0 is no effect and 100 is complete control. A dash (-) response means no test result.

[9] = test system: ragweed; assay: Test A preemergence; assay type: in vivo, Ambrosia artemisiifolia; conditions: 1000 g ai/ha, 0 to 100 scale (0 no effect, 100 complete control), 10 days
Procedure, shortened: as §2

[10] = test system: foxtail, giant; assay: Test A preemergence; assay type: in vivo, Setaria faberi; conditions: 1000 g ai/ha, 0 to 100 scale (0 no effect, 100 complete control), 10 days
Procedure, shortened: as §2

[11] = test system: kochia; assay: Test A postemergence; assay type: in vivo, Bassia scoparia; conditions: 1000 g ai/ha, Postemergence; 0 to 100 scale
Procedure, shortened: as §2

[12] = test system: Pigweed, Redroot; assay: Test A postemergence; assay type: in vivo, Amaranthus retroflexus; conditions: 1000 g ai/ha, Postemergence; 0 to 100 scale
Excerpt: as §3

[13] = test system: ryegrass, Italian; assay: Test A postemergence; assay type: in vivo, Lolium multiflorum; conditions: 1000 g ai/ha, Postemergence; 0 to 100 scale
Procedure, shortened: as §2

[14] = test system: ragweed; assay: Test A postemergence; assay type: in vivo, Ambrosia artemisiifolia; conditions: 1000 g ai/ha, Postemergence; 0 to 100 scale
Procedure, shortened: as §2

[15] = test system: blackgrass; assay: Test A postemergence; assay type: in vivo, Alopecurus myosuroides; conditions: 1000 g ai/ha, Postemergence; 0 to 100 scale
Procedure, shortened: as §2

[16] = test system: galium; assay: Test A postemergence; assay type: in vivo, Galium aparine; conditions: 1000 g ai/ha, Postemergence; 0 to 100 scale
Procedure, shortened: as §2

[17] = test system: wheat; assay: Test A postemergence; assay type: in vivo, Triticum aestivum; conditions: 1000 g ai/ha, Postemergence; 0 to 100 scale
Procedure, shortened: as §2

[18] = test system: barnyardgrass; assay: Test A postemergence; assay type: in vivo, Echinochloa crusgalli; conditions: 1000 g ai/ha, Postemergence; 0 to 100 scale
Procedure, shortened: as §2

[19] = test system: corn; assay: Test A postemergence; assay type: in vivo, Zea mays; conditions: 1000 g ai/ha, Postemergence; 0 to 100 scale
Procedure, shortened: as §2

[20] = test system: foxtail, giant; assay: Test A postemergence; assay type: in vivo, Setaria faberi; conditions: 1000 g ai/ha, Postemergence; 0 to 100 scale
Procedure, shortened: as §2

| Structure (SMILES) | Plant response rating, Rice [1] | Plant response rating, Sedge, Umbrella [2] | Plant response rating, Barnyardgrass [3] | Plant response rating, Barnyardgrass [4] | Plant response rating, Ryegrass, Italian [5] | Plant response rating, Ducksalad [6] | Plant response rating, Kochia [7] | Plant response rating, Pigweed, Redroot [8] | Plant response rating, Ragweed [9] | Plant response rating, Foxtail, Giant [10] | Plant response rating, Kochia [11] | Plant response rating, Pigweed, Redroot [12] | Plant response rating, Ryegrass, Italian [13] | Plant response rating, Ragweed [14] | Plant response rating, Blackgrass [15] | Plant response rating, Galium [16] | Plant response rating, Wheat [17] | Plant response rating, Barnyardgrass [18] | Plant response rating, Corn [19] | Plant response rating, Foxtail, Giant [20] |
| --- | --- | --- | --- | --- | --- | --- | --- | --- | --- | --- | --- | --- | --- | --- | --- | --- | --- | --- | --- | --- |
| CCC1CN(C(=O)c2ccnc(-n3cncn3)c2)c2cccc(Cl)c2O1 (single isomer, unassigned) [Compound 5] | 0 | 0 | 25 | 70 | 80 | 35 | 30 | 80 | 0 | 100 | – | – | – | – | – | – | – | – | – | – |
| CC1CN(C(=O)c2ccnc(-n3cncn3)c2)c2cccc(Cl)c2O1 (centres unmarked) [Compound 1] | 0 | 0 | 0 | 80 | 90 | 0 | 40 | 40 | 80 | 100 | – | – | – | – | – | – | – | – | – | – |
| CC1CN(C(=O)c2ccnc(-n3cncn3)c2)c2cccc(Cl)c2O1 (centres unmarked) [Compound 10] | 0 | 0 | 0 | 90 | 80 | 0 | 30 | 40 | 80 | 100 | – | – | – | – | – | – | – | – | – | – |
| CCC1CN(C(=O)c2ccnc(-n3cncn3)c2)c2cc(Cl)ccc2O1 (centres unmarked) [Compound 12] | – | – | – | 0 | 0 | – | 0 | 0 | 0 | 20 | – | – | – | – | – | – | – | – | – | – |
| CCC1CN(C(=O)c2ccnc(-n3cncn3)c2)c2cccc(Br)c2O1 (centres unmarked) [Compound 13] | – | – | – | 0 | 30 | – | 60 | 50 | 0 | 90 | – | – | – | – | – | – | – | – | – | – |
| CCC1CN(C(=O)c2ccnc(-n3cncn3)c2)c2c(Cl)cccc2O1 (centres unmarked) [Compound 14] | – | – | – | 0 | 20 | – | 30 | 10 | 0 | 30 | – | – | – | – | – | – | – | – | – | – |
| CCC1CN(C(=O)c2ccnc(-n3cncn3)c2)c2cccc(F)c2O1 (centres unmarked) [Compound 15] | – | – | – | 60 | 60 | – | 60 | 90 | 0 | 100 | – | – | – | – | – | – | – | – | – | – |
| CCC1CN(C(=O)c2ccnc(-n3cncn3)c2)c2ccc(Cl)cc2O1 (centres unmarked) [Compound 16] | – | – | – | 0 | 0 | – | 20 | 20 | 0 | 0 | – | – | – | – | – | – | – | – | – | – |
| CCC1CN(C(=O)c2ccnc(-n3cncn3)c2)c2cccc(I)c2O1 (centres unmarked) [Compound 17] | – | – | – | 0 | 0 | – | 30 | 100 | 0 | 0 | 10 | 0 | 0 | 0 | 0 | 0 | 0 | 0 | 0 | 0 |
| CC1CN(C(=O)c2cccc(-n3cncn3)c2)c2ccc(F)cc2O1 (centres unmarked) [Compound 23] | – | – | – | 30 | 30 | – | 0 | 0 | 0 | 50 | 10 | 0 | 0 | 20 | 30 | – | 20 | 10 | 30 | 10 |
| CC1CN(C(=O)c2cccc(-n3cncn3)c2)c2cc(F)ccc2O1 (centres unmarked) [Compound 24] | – | – | – | 50 | 100 | – | 0 | 0 | 0 | 30 | 10 | 0 | 60 | 0 | 60 | – | 30 | 30 | 10 | 50 |
| C=Cc1cccc2c1OC(C)CN2C(=O)c1cccc(-n2cncn2)c1 (centres unmarked) [Compound 26] | – | – | – | 0 | 0 | – | 0 | 0 | 0 | 0 | 0 | 0 | 0 | 0 | 0 | – | 0 | 0 | 0 | 0 |
| CC1CN(C(=O)c2cccc(-n3cncn3)c2)c2ccccc2O1 (centres unmarked) [Compound 31] | – | – | – | 80 | 90 | – | 30 | 0 | 20 | 100 | 20 | 0 | 70 | 0 | 50 | – | 40 | 30 | 30 | 80 |
| C[C@H]1CN(C(=O)c2cccc(-c3ccncc3)c2)c2cccc(Cl)c2O1 [Compound 123] | – | – | – | 40 | 30 | – | 30 | 30 | 30 | 0 | 20 | 60 | 30 | 0 | 20 | 50 | 0 | 20 | 0 | 10 |
| CC1CN(C(=O)c2ccnc(-n3cncn3)c2)c2ccccc2O1 (centres unmarked) [Compounds 8] | – | – | – | 0 | 40 | – | 50 | 10 | 0 | 90 | – | – | – | – | – | – | – | – | – | – |
